Data as given in patent publication US9598433B2, “Hepatitis C virus inhibitors” (BRISTOL-MYERS SQUIBB COMPANY, priority 2012, dated 2017).
Read-outs that look alike come from different tables or passages of the source.

Key:
[1] = tested on: HCV genotype 1a (H77 strain) replicon in HUH-7 cells; assay: HCV replicon luciferase reporter assay, genotype 1a; format: cell-based; conditions: Hepatitis C virus, 72 h, genotype 1a replicon, 3 days incubation
Method in brief: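 Stable HUH-7 line carrying luciferase-reporter genotype 1a (H77) replicon with adaptive NS3 P1496L and NS5A S2204I mutations; 3.0×10^3 cells/well in 4% FCS, 0.5% DMSO, twenty-point 3-fold titration, 3 days at 37 °C. Renilla luminescence with 7.5 μM EnduRen; EC50 by four-parameter logistic fit; CC50 by multiplexed Cell Titer-Blue.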

[2] = tested on: HCV genotype 1b (Con1) replicon in HUH-7 cells; assay: HCV replicon luciferase reporter assay, genotype 1b; format: cell-based; conditions: Hepatitis C virus, 72 h, genotype 1b replicon, 3 days incubation
Method in brief: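 Replication was read as Renilla luciferase signal, using 7.5 μM EnduRen substrate with a 2-h incubation at 37 °C. The signal came from a HUH-7 line constitutively expressing a luciferase-tagged 1b (Con1) replicon carrying S1179I.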

Row | SMILES | EC50 ([1]; read-out: LE_1a (EC50, range)) [pM] | EC50 ([2]; read-out: LE_1b (EC50, range)) [pM] | EC50 ([1]; read-out: LE_1a (EC50)) [pM] | EC50 ([2]; read-out: LE_1b (EC50)) [pM]
1 | COc1cc(F)cc2c(O[C@@H]3C[C@H]4C(=O)N[C@]5(C(=O)NS(=O)(=O)C6(CF)CC6)C[C@H]5/C=C\CC[C@@H](C)O[C@@H](C)[C@H](NC(=O)OC(C)(C)C(F)F)C(=O)N4C3)nccc12 [Compound 2022, 1,1-difluoro-2-methylpropan-2-yl ((2R,6S,7S,9R,13aS,14aR,16aS,Z)-2-((7-fluoro-5-methoxyisoquinolin-1-yl)oxy)-14a-(((1-(fluoromethyl)cyclopropyl)sulfonyl)carbamoyl)-7,9-dimethyl-5,16-dioxo-2,3,5,6,7,9,10,11,13a,14,14a,15,16,16a-tetradecahydro-1H-cyclopropa[i]pyrrolo[1,2-e][1,5,8]oxadiazacyclopentadecin-6-yl)carbamate] | 1010 to 5000 | 1010 to 5000 |  | 
2 | CC[C@@H]1O[C@H](C)CC/C=C\[C@@H]2C[C@@]2(C(=O)NS(=O)(=O)C2(C)CC2)NC(=O)[C@@H]2C[C@@H](Oc3nc4c(c5ccccc35)CCCO4)CN2C(=O)[C@H]1NC(=O)OC(C)(C)C(C)(F)F [Compound 2301, 3,3-difluoro-2-methylbutan-2-yl ((2R,6S,7S,9R,13aS,14aR,16aS,Z)-2-((2,3-dihydro-1H-pyrano[2,3-c]isoquinolin-6-yl)oxy)-7-ethyl-9-methyl-14a-(((1-methylcyclopropyl)sulfonyl)carbamoyl)-5,16-dioxo-2,3,5,6,7,9,10,11,13a,14,14a,15,16,16a-tetradecahydro-1H-cyclopropa[i]pyrrolo[1,2-e][1,5,8]oxadiazacyclopentadecin-6-yl)carbamate] | 510 to 1000 | 100 to 500 |  | 
3 | CC[C@@H]1O[C@H](C)CC/C=C\[C@@H]2C[C@@]2(C(=O)NS(=O)(=O)C2(C)CC2)NC(=O)[C@@H]2C[C@@H](Oc3nc4c(c5ccccc35)CCCO4)CN2C(=O)[C@H]1NC(=O)OC(C)(C)C(F)(F)F [Compound 2302, 1,1,1-trifluoro-2-methylpropan-2-yl ((2R,6S,7S,9R,13aS,14aR,16aS,Z)-2-((2,3-dihydro-1H-pyrano[2,3-c]isoquinolin-6-yl)oxy)-7-ethyl-9-methyl-14a-(((1-methylcyclopropyl)sulfonyl)carbamoyl)-5,16-dioxo-2,3,5,6,7,9,10,11,13a,14,14a,15,16,16a-tetradecahydro-1H-cyclopropa[i]pyrrolo[1,2-e][1,5,8]oxadiazacyclopentadecin-6-yl)carbamate] | 510 to 1000 | 100 to 500 |  | 
4 | C[C@@H]1CC/C=C\[C@@H]2C[C@@]2(C(=O)NS(=O)(=O)C2(C)CC2)NC(=O)[C@@H]2C[C@@H](Oc3nc4c(c5ccccc35)CCCO4)CN2C(=O)[C@@H](NC(=O)OC(C)(C)C(C)(F)F)[C@H](C)O1 [Compound 2303, 3,3-difluoro-2-methylbutan-2-yl ((2R,6S,7S,9R,13aS,14aR,16aS,Z)-2-((2,3-dihydro-1H-pyrano[2,3-c]isoquinolin-6-yl)oxy)-7,9-dimethyl-14a-(((1-methylcyclopropyl)sulfonyl)carbamoyl)-5,16-dioxo-2,3,5,6,7,9,10,11,13a,14,14a,15,16,16a-tetradecahydro-1H-cyclopropa[i]pyrrolo[1,2-e][1,5,8]oxadiazacyclopentadecin-6-yl)carbamate] | 510 to 1000 | 510 to 1000 |  | 
5 | C[C@@H]1CC/C=C\[C@@H]2C[C@@]2(C(=O)NS(=O)(=O)C2(C)CC2)NC(=O)[C@@H]2C[C@@H](Oc3nc4c(c5ccccc35)CCCO4)CN2C(=O)[C@@H](NC(=O)OC(C)(C)C(F)F)[C@H](C)O1 [Compound 2304, 1,1-difluoro-2-methylpropan-2-yl ((2R,6S,7S,9R,13aS,14aR,16aS,Z)-2-((2,3-dihydro-1H-pyrano[2,3-c]isoquinolin-6-yl)oxy)-7,9-dimethyl-14a-(((1-methylcyclopropyl)sulfonyl)carbamoyl)-5,16-dioxo-2,3,5,6,7,9,10,11,13a,14,14a,15,16,16a-tetradecahydro-1H-cyclopropa[i]pyrrolo[1,2-e][1,5,8]oxadiazacyclopentadecin-6-yl)carbamate] | 100 to 500 | 510 to 1000 | 490 | 640
6 | C[C@@H]1CC/C=C\[C@@H]2C[C@@]2(C(=O)NS(=O)(=O)C2(C)CC2)NC(=O)[C@@H]2C[C@@H](Oc3nc4c(c5ccccc35)CCCO4)CN2C(=O)[C@@H](NC(=O)OC(C)(C)C(F)(F)F)[C@H](C)O1 [Compound 2305, 1,1,1-trifluoro-2-methylpropan-2-yl ((2R,6S,7S,9R,13aS,14aR,16aS,Z)-2-((2,3-dihydro-1H-pyrano[2,3-c]isoquinolin-6-yl)oxy)-7,9-dimethyl-14a-(((1-methylcyclopropyl)sulfonyl)carbamoyl)-5,16-dioxo-2,3,5,6,7,9,10,11,13a,14,14a,15,16,16a-tetradecahydro-1H-cyclopropa[i]pyrrolo[1,2-e][1,5,8]oxadiazacyclopentadecin-6-yl)carbamate] | 510 to 1000 | 510 to 1000 |  | 
7 | COc1ccc2c(O[C@@H]3C[C@H]4C(=O)N[C@]5(C(=O)NS(=O)(=O)C6(C)CC6)C[C@H]5/C=C\CC[C@@H](C)O[C@@H](C)[C@H](NC(=O)OC(C)(C)C(F)(F)F)C(=O)N4C3)nc3c(c2c1)CCCO3 [Compound 2306, 1,1,1-trifluoro-2-methylpropan-2-yl ((2R,6S,7S,9R,13aS,14aR,16aS,Z)-2-((9-methoxy-2,3-dihydro-1H-pyrano[2,3-c]isoquinolin-6-yl)oxy)-7,9-dimethyl-14a-(((1-methylcyclopropyl)sulfonyl)carbamoyl)-5,16-dioxo-2,3,5,6,7,9,10,11,13a,14,14a,15,16,16a-tetradecahydro-1H-cyclopropa[i]pyrrolo[1,2-e][1,5,8]oxadiazacyclopentadecin-6-yl)carbamate] | 100 to 500 | 100 to 500 |  | 
8 | CC[C@@H]1O[C@H](C)CC/C=C\[C@@H]2C[C@@]2(C(=O)NS(=O)(=O)C2(C)CC2)NC(=O)[C@@H]2C[C@@H](Oc3nc4c(c5cc(OC)ccc35)CCCO4)CN2C(=O)[C@H]1NC(=O)OC(C)(C)C(F)(F)F [Compound 2307, 1,1,1-trifluoro-2-methylpropan-2-yl ((2R,6S,7S,9R,13aS,14aR,16aS,Z)-7-ethyl-2-((9-methoxy-2,3-dihydro-1H-pyrano[2,3-c]isoquinolin-6-yl)oxy)-9-methyl-14a-(((1-methylcyclopropyl)sulfonyl)carbamoyl)-5,16-dioxo-2,3,5,6,7,9,10,11,13a,14,14a,15,16,16a-tetradecahydro-1H-cyclopropa[i]pyrrolo[1,2-e][1,5,8]oxadiazacyclopentadecin-6-yl)carbamate] | 100 to 500 | 100 to 500 |  | 
9 | CC[C@@H]1O[C@H](C)CC/C=C\[C@@H]2C[C@@]2(C(=O)NS(=O)(=O)C2(C)CC2)NC(=O)[C@@H]2C[C@@H](Oc3nc4c(c5cc(OC)ccc35)CCCO4)CN2C(=O)[C@H]1NC(=O)OC(C)(C)C(C)(F)F [Compound 2308, 3,3-difluoro-2-methylbutan-2-yl ((2R,6S,7S,9R,13aS,14aR,16aS,Z)-7-ethyl-2-((9-methoxy-2,3-dihydro-1H-pyrano[2,3-c]isoquinolin-6-yl)oxy)-9-methyl-14a-(((1-methylcyclopropyl)sulfonyl)carbamoyl)-5,16-dioxo-2,3,5,6,7,9,10,11,13a,14,14a,15,16,16a-tetradecahydro-1H-cyclopropa[i]pyrrolo[1,2-e][1,5,8]oxadiazacyclopentadecin-6-yl)carbamate] | 100 to 500 | 100 to 500 |  | 
10 | COc1ccc2c(O[C@@H]3C[C@H]4C(=O)N[C@]5(C(=O)NS(=O)(=O)C6(C)CC6)C[C@H]5/C=C\CC[C@@H](C)O[C@@H](C)[C@H](NC(=O)OC(C)(C)C(C)(F)F)C(=O)N4C3)nc3c(c2c1)CCCO3 [Compound 2309, 3,3-difluoro-2-methylbutan-2-yl ((2R,6S,7S,9R,13aS,14aR,16aS,Z)-2-((9-methoxy-2,3-dihydro-1H-pyrano[2,3-c]isoquinolin-6-yl)oxy)-7,9-dimethyl-14a-(((1-methylcyclopropyl)sulfonyl)carbamoyl)-5,16-dioxo-2,3,5,6,7,9,10,11,13a,14,14a,15,16,16a-tetradecahydro-1H-cyclopropa[i]pyrrolo[1,2-e][1,5,8]oxadiazacyclopentadecin-6-yl)carbamate] | 510 to 1000 | 510 to 1000 |  | 
11 | COc1ccc2c(O[C@@H]3C[C@H]4C(=O)N[C@]5(C(=O)NS(=O)(=O)C6(C)CC6)C[C@H]5/C=C\CC[C@@H](C)O[C@@H](C)[C@H](NC(=O)OC(C)(C)C(F)F)C(=O)N4C3)nc3c(c2c1)CCCO3 [Compound 2310, 1,1-difluoro-2-methylpropan-2-yl ((2R,6S,7S,9R,13aS,14aR,16aS,Z)-2-((9-methoxy-2,3-dihydro-1H-pyrano[2,3-c]isoquinolin-6-yl)oxy)-7,9-dimethyl-14a-(((1-methylcyclopropyl)sulfonyl)carbamoyl)-5,16-dioxo-2,3,5,6,7,9,10,11,13a,14,14a,15,16,16a-tetradecahydro-1H-cyclopropa[i]pyrrolo[1,2-e][1,5,8]oxadiazacyclopentadecin-6-yl)carbamate] | 100 to 500 | 100 to 500 |  | 
12 | CC[C@@H]1O[C@H](C)CC/C=C\[C@@H]2C[C@@]2(C(=O)NS(=O)(=O)C2(C)CC2)NC(=O)[C@@H]2C[C@@H](Oc3nc4c(c5cc(OC)ccc35)CCCO4)CN2C(=O)[C@H]1NC(=O)OC(C)(C)C(F)F [Compound 2311, 1,1-difluoro-2-methylpropan-2-yl ((2R,6S,7S,9R,13aS,14aR,16aS,Z)-7-ethyl-2-((9-methoxy-2,3-dihydro-1H-pyrano[2,3-c]isoquinolin-6-yl)oxy)-9-methyl-14a-(((1-methylcyclopropyl)sulfonyl)carbamoyl)-5,16-dioxo-2,3,5,6,7,9,10,11,13a,14,14a,15,16,16a-tetradecahydro-1H-cyclopropa[i]pyrrolo[1,2-e][1,5,8]oxadiazacyclopentadecin-6-yl)carbamate] | 100 to 500 | 100 to 500 |  | 
